In BigSolDB 2.1:

c1ccc(-n2c3ccccc3c3ccccc32)cc1
solubility (mole fraction)
Conditions | 278.15 K | 283.15 K | 288.15 K | 293.15 K | 298.15 K | 303.15 K | 308.15 K | 313.15 K
in 1,4-dioxane | – | – | 0.124 | 0.213 | 0.292 | 0.417 | 0.514 | 0.717
in THF | 0.249 | 0.274 | 0.309 | 0.346 | 0.386 | 0.439 | 0.497 | 0.562
in acetonitrile | 0.00383 | 0.00413 | 0.00487 | 0.00582 | 0.00624 | 0.00735 | 0.00826 | 0.0102
in chloroform | 0.237 | 0.262 | 0.322 | 0.399 | 0.461 | 0.555 | 0.651 | 0.753
in cyclohexane | – | 0.034 | 0.0421 | 0.0523 | 0.0691 | 0.0815 | 0.101 | 0.132
in dichloromethane | 0.223 | 0.246 | 0.311 | 0.385 | 0.453 | 0.548 | 0.644 | –
in ethanol | 0.00099 | 0.00167 | 0.00218 | 0.00271 | 0.00334 | 0.0042 | 0.00574 | 0.007
in isopropanol | 0.001 | 0.00131 | 0.00215 | 0.00244 | 0.00303 | 0.004 | 0.00458 | 0.00591
in methanol | 6.96e-05 | 0.00011 | 0.000178 | 0.000208 | 0.000251 | 0.000296 | 0.000427 | 0.00055
in n-butanol | 0.00207 | 0.00219 | 0.00266 | 0.00333 | 0.00403 | 0.00468 | 0.00691 | 0.00919
in n-hexane | 0.0355 | 0.0378 | 0.0431 | 0.0494 | 0.0552 | 0.0624 | 0.0703 | 0.078
in n-propanol | 0.00298 | 0.00323 | 0.00412 | 0.00517 | 0.0061 | 0.00749 | 0.00936 | 0.0116
